The results in this text go back to PubChem BioAssay AID2060895 (Molecular Pharmacology Branch, DTP, NCI, 2025).

In this assay the test system is PDC 899932-113-R3-J6 complex spheroid viability. In words: Anticancer human tumor 899932-113-R3-J6-PDC patient-derived melanoma cell line growth inhibition [RAS]. The settings on record: for viability, T/C: stronger effect = lower value. The method in brief:
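Multi-cell-type spheroids: tumor cells plus HUVEC endothelial cells and mesenchymal stem cells. RAS-pathway inhibitors were combined with targeted agents, each dosed in half-log steps down from clinical Cmax, or from 10 microM when Cmax was unknown.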

Where [1] appears, read: curve of first compound, second compound 0.0316 µM.
Where [2] appears, read: curve of first compound, second compound 0.1 µM.
Where [3] appears, read: curve of first compound, second compound 0.316 µM.
Where [4] appears, read: curve of first compound, second compound 1 µM.
[5] abbreviates: second compound 0.0316 µM, first compound 0.0316 µM.
Setting [6] is: second compound 0.0316 µM, first compound 0.1 µM.
[7] abbreviates: second compound 0.0316 µM, first compound 0.316 µM.
[8] abbreviates: second compound 0.0316 µM, first compound 1 µM.
Setting [9] is: second compound 0.1 µM, first compound 0.0316 µM.
Setting [10] is: second compound 0.1 µM, first compound 0.1 µM.
The mark [11] stands for this setting: second compound 0.1 µM, first compound 0.316 µM.
The mark [12] stands for this setting: second compound 0.1 µM, first compound 1 µM.
The mark [13] stands for this setting: second compound 0.316 µM, first compound 0.0316 µM.
Setting [14] is: second compound 0.316 µM, first compound 0.1 µM.
Setting [15] is: second compound 0.316 µM, first compound 0.316 µM.
[16] abbreviates: second compound 0.316 µM, first compound 1 µM.
[17] abbreviates: second compound 1 µM, first compound 0.0316 µM.
[18] abbreviates: second compound 1 µM, first compound 0.1 µM.
[19] abbreviates: second compound 1 µM, first compound 0.316 µM.
[20] abbreviates: second compound 1 µM, first compound 1 µM.
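Wherever viability, T/C is given: spheroids exposed to agents for seven days before readout; 100% = DMSO vehicle control wells.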

For `C[C@@H](NC(=O)c1ncnc(N)c1Cl)c1ncc(C(=O)Nc2cc(C(F)(F)F)c(Cl)cn2)s1` + C=CC(=O)N1CCN(c2nc(OCC3CCCN3C)nc3c(F)c(-c4nc(N)cc(C)c4C(F)(F)F)c(Cl)cc23)C(C)C1, the IC50 worked out at 6.95 µM (curve of first compound, second compound 0.00316 µM); 7.01 µM (curve of first compound, second compound 0.01 µM); 7.26 µM under setting [1]; 7.39 µM under setting [2]; 7.41 µM under setting [3]; 7.6 µM under setting [4]. Also, the viability, T/C was 131% (second compound 0.00316 µM, first compound 0.0316 µM); 152% (second compound 0.00316 µM, first compound 0.1 µM); 169% (second compound 0.00316 µM, first compound 0.316 µM); 164% (second compound 0.00316 µM, first compound 1 µM); 103% (second compound 0.00316 µM, first compound 3.16 µM); 25.8% (second compound 0.00316 µM, first compound 10 µM). The viability, T/C was 140% (second compound 0.01 µM, first compound 0.0316 µM); 153% (second compound 0.01 µM, first compound 0.1 µM); 153% (second compound 0.01 µM, first compound 0.316 µM); 154% (second compound 0.01 µM, first compound 1 µM); 106% (second compound 0.01 µM, first compound 3.16 µM); 25% (second compound 0.01 µM, first compound 10 µM). In addition, the viability, T/C by setting is: under setting [5], 121%; under setting [6], 143%; under setting [7], 157%; under setting [8], 154%; (second compound 0.0316 µM, first compound 3.16 µM) 104%; (second compound 0.0316 µM, first compound 10 µM) 29.1%. Further, the viability, T/C runs as follows: under setting [9], 142%; under setting [10], 152%; under setting [11], 153%; under setting [12], 160%; (second compound 0.1 µM, first compound 3.16 µM) 115%; (second compound 0.1 µM, first compound 10 µM) 26.9%. Also, the viability, T/C was 136% under setting [13]; 136% under setting [14]; 168% under setting [15]; 161% under setting [16]; 108% (second compound 0.316 µM, first compound 3.16 µM); 29.3% (second compound 0.316 µM, first compound 10 µM). For the same molecule, the viability, T/C reads like this: under setting [17], 124%; under setting [18], 144%; under setting [19], 149%; under setting [20], 151%; (second compound 1 µM, first compound 3.16 µM) 114%; (second compound 1 µM, first compound 10 µM) 29.9%.

With `CC(=O)OC12COC1CC(O)C1(C)C(=O)C(O)C3=C(C)C(OC(=O)C(O)C(NC(=O)OC(C)(C)C)c4ccccc4)CC(O)(C(OC(=O)c4ccccc4)C21)C3(C)C` (centres undefined), the viability, T/C is 27.8% [middle of 4 runs] (compound 0.0316 µM); 33.9% [middle of 4 runs] (compound 0.1 µM); 37.7% [middle of 4 runs] (compound 0.316 µM); 49.9% [middle of 4 runs] (compound 1 µM); 73.4% [middle of 4 runs] (compound 3.16 µM); 64.2% [middle of 4 runs] (compound 10 µM). In addition, for the setting “curve of compound”, the IC50 is less than 0.0316 µM.

`C=CC(=O)Nc1cc(Nc2nccc(-c3cn(C)c4ccccc34)n2)c(OC)cc1N(C)CCN(C)C` + C#Cc1c(F)ccc2cc(O)cc(-c3ncc4c(N5CC6CCC(C5)N6)nc(OCC56CCCN5CC(F)C6)nc4c3F)c12: the IC50 is more than 1 µM under setting [1]; more than 1 µM under setting [2]; more than 1 µM under setting [3]; more than 1 µM under setting [4]; more than 1 µM (curve of first compound, second compound 3.16 µM); more than 1 µM (curve of first compound, second compound 10 µM). The viability, T/C is, setting by setting: (second compound 0.0316 µM, first compound 0.00316 µM) 117%; (second compound 0.0316 µM, first compound 0.01 µM) 110%; under setting [5], 109%; under setting [6], 103%; under setting [7], 110%; under setting [8], 95.6%. Also, the viability, T/C reads like this: (second compound 0.1 µM, first compound 0.00316 µM) 103%; (second compound 0.1 µM, first compound 0.01 µM) 107%; under setting [9], 106%; under setting [10], 100%; under setting [11], 113%; under setting [12], 103%. For the same molecule, the viability, T/C was 111% (second compound 0.316 µM, first compound 0.00316 µM); 106% (second compound 0.316 µM, first compound 0.01 µM); 106% under setting [13]; 107% under setting [14]; 111% under setting [15]; 104% under setting [16]. Moreover, the viability, T/C runs as follows: (second compound 1 µM, first compound 0.00316 µM) 114%; (second compound 1 µM, first compound 0.01 µM) 113%; under setting [17], 119%; under setting [18], 122%; under setting [19], 105%; under setting [20], 115%. Also, the viability, T/C (second compound 3.16 µM, first compound 0.00316 µM) was 115%; the viability, T/C (second compound 3.16 µM, first compound 0.01 µM) is 116%; the viability, T/C (second compound 3.16 µM, first compound 0.0316 µM) was 114%; the viability, T/C (second compound 3.16 µM, first compound 0.1 µM) was 117%; the viability, T/C (second compound 3.16 µM, first compound 0.316 µM) is 112%; the viability, T/C (second compound 3.16 µM, first compound 1 µM) is 114%. For the same molecule, the viability, T/C was 123% (second compound 10 µM, first compound 0.00316 µM); 118% (second compound 10 µM, first compound 0.01 µM); 110% (second compound 10 µM, first compound 0.0316 µM); 128% (second compound 10 µM, first compound 0.1 µM); 120% (second compound 10 µM, first compound 0.316 µM); 93.7% (second compound 10 µM, first compound 1 µM).

On to `CCn1c(-c2cccnc2C(C)OC)c2c3cc(ccc31)N1CCOC(CC(NC(=O)C(C(C)C)N(C)C(=O)C3(F)CCN(C(=O)C#CC(C)(C)N(C)C)CC3)C(=O)N3CCCC(N3)C(=O)OCC(C)(C)C2)C1` (centres undefined), for which the viability, T/C by setting is: (compound 0.000949 µM) 110% [middle of 8 runs]; (compound 0.003 µM) 108% [middle of 8 runs]; (compound 0.00949 µM) 105% [middle of 8 runs]; (compound 0.03 µM) 106% [middle of 8 runs]; (compound 0.0949 µM) 98.7% [middle of 8 runs]; (compound 0.3 µM) 92.5% [middle of 8 runs]. For the same molecule, the half-maximal inhibitory concentration (IC50) (compound alone, run of 08/20/2024) was more than 0.3 µM.

Turning to `O=C(c1ccc(F)c(F)c1Nc1ccc(I)cc1F)N1CC(O)([C@@H]2CCCCN2)C1`, the viability, T/C (compound 0.00316 µM) is 74% [middle of 4 runs]; the viability, T/C (compound 0.0316 µM) was 6.94% [middle of 4 runs]; the viability, T/C (compound 0.1 µM) was 3.21% [middle of 4 runs]; the viability, T/C (compound 0.316 µM) was 1.96% [middle of 4 runs]; the viability, T/C (compound 1 µM) is 1.06% [middle of 4 runs]. The IC50 (curve of compound) is 7.85 nM [middle of 4 runs].

By IC50 is commonly meant the concentration at which inhibition is half-maximal. The viability, T/C is the result in the treated group divided by that in the control group, in per cent.
